The text below walks through data of the NIST ThermoML archive (doi:10.1021/je7003947).

The conditions of the data set: Liquid, Closed cell (Static) method.

Structures are written as SMILES. Where “and” joins values, the source holds several entries; their conditions need not be identical. Equal values may be shown once. Numbers after ± are expanded uncertainties.

Regarding `CO` [methanol], the “vapor or sublimation pressure” value (323.13 K) is 55.5 ± 1.4 kPa. In the case of `CC(C)O` [propan-2-ol], the “vapor or sublimation pressure” value (323.19 K) is 23.6 ± 0.2 kPa. As to `CC(C)(C)O` [2-methylpropan-2-ol], the “vapor or sublimation pressure” value (323.2 K) turned out to be 23.8 ± 1.4 kPa.

In the case of `CCO` [ethanol], the “vapor or sublimation pressure” value (323.14 K) is 29.4 ± 1.4 kPa. Take `CCC(C)O` (stereo not drawn) [butan-2-ol]: the “vapor or sublimation pressure” value (323.17 K) was 10.7 ± 1.4 kPa.

Take `CCCC` [butane]: the “vapor or sublimation pressure” value is, setting by setting: (323.12 K) 495 ± 2.2 kPa; (323.13 K) 495.3 ± 2.2 kPa; (323.15 K) 495.6 ± 1.8 kPa and 495.7 ± 2.2 kPa.
